Data on 19 compounds can be found in patent publication US8765763B2, “Substituted piperazines as CGRP antagonists” (Boehringer Ingelheim International GmbH, priority 2009, dated 2014).

The target of this assay is T1, human CGRP receptor (Homo sapiens, UniProt O60894+Q16602).
T1 construct: SK-N-MC membranes (˜20 μg protein) are incubated for 180 minutes at ambient temperature; endogenous in cells; host or cells: SK-N-MC cells (membranes)
T1 sequence (Q16602 23-461): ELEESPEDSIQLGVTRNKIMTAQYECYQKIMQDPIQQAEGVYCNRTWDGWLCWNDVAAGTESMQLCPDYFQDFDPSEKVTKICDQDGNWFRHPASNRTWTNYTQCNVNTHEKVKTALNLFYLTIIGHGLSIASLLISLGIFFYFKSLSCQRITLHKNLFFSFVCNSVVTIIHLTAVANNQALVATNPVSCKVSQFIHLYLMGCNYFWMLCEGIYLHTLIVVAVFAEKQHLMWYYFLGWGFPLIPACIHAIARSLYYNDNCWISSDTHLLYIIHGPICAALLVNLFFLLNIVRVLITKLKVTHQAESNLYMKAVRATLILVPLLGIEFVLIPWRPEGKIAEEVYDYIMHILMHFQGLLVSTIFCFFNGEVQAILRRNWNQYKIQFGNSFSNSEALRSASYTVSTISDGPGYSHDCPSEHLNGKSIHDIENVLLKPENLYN
T1 sequence (O60894 27-148): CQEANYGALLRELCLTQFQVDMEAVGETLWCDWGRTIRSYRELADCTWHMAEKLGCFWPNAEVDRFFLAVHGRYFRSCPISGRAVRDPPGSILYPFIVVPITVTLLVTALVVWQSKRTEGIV
Kind of assay: Binding studies with SK-N-MC cells (expressing the human CGRP receptor), 125I-iodotyrosyl-CGRP displacement on SK-N-MC membranes. The following applies: 50 pM 125I-iodotyrosyl-CGRP, 180 minutes at ambient temperature. Here is the method:
A. Binding Studies with SK-N-MC Cells (Expressing the Human CGRP Receptor)
SK-N-MC membranes (˜20 μg protein) are incubated for 180 minutes at ambient temperature with 50 pM ^125I-iodotyrosyl-Calcitonin-Gene-Related Peptide and increasing concentrations of the test substances in a total volume of 250 μl (assay buffer: 10 mM tris, 50 mM NaCl, 5 mM MgCl2, 1 mM EDTA, pH=7.4). The incubation is ended by rapid filtration through GF/B-glass fibre filters treated with polyethyleneimine (0.1%) using a cell harvester. The protein-bound radioactivity is measured using a gamma counter. Non-specific binding is defined as the bound radioactivity after the presence of 1 μM BIBN4096BS during incubation.
The concentration binding curves are analysed using computer-aided non-linear curve fitting.
As usually defined, the Ki is the dissociation constant of the complex between target and ligand, obtained from inhibition or displacement. Low values mean a stronger hold on the target, high ones a looser hold on the target. Consider `O=C(CN1C(=O)C(C2CCOCC2)NCC1c1cc(F)cc(F)c1)Nc1ccc2c(c1)C[C@@]1(C2)C(=O)Nc2ncccc21` (single isomer, unassigned) [Example 15b], for which the Ki was found to be 390 pM.

In turn, `O=C(CN1C(=O)C(C2CCOCC2)NCC1c1cc(F)cc(F)c1)Nc1ccc2c(c1)C[C@@]1(C2)C(=O)Nc2ncccc21` (single isomer, unassigned) [Example 15a] came in with a Ki of 100 pM.

As for `O=C(CN1C(=O)C2(COCCOC2)NC[C@H]1c1ccccc1)Nc1ccc2c(c1)C[C@@]1(C2)C(=O)Nc2ncccc21` [Example 21, N—((R)-2′-oxo-1,1′,2′,3-tetrahydrospiro[inden-2,3′-pyrrolo[2,3-b]pyridin]-5-yl)-2-((R)-5-oxo-3-phenyl-8,11-dioxa-1,4-diazaspiro[5.6]dodecan-4-yl)acetamide], the Ki worked out at 440 pM.

The compound `O=C(CN1C(=O)C2(COCCOC2)NCC1c1cccc(F)c1)Nc1ccc2c(c1)C[C@@]1(C2)C(=O)Nc2ncccc21` (stereo partly drawn) [Example 23, 2-(3-(3-fluorophenyl)-5-oxo-8,11-dioxa-1,4-diazaspiro[5.6]dodecan-4-yl)-N—((R)-2′-oxo-1,1′,2′,3-tetrahydrospiro[inden-2,3′-pyrrolo[2,3-b]pyridin]-5-yl)acetamide] returned a Ki of 50 pM.

As for `COc1cccc(C2CNC3(COCCOC3)C(=O)N2CC(=O)Nc2ccc3c(c2)C[C@@]2(C3)C(=O)Nc3ncccc32)c1` (stereo partly drawn) [Example 18, 2-(3-(3-methoxyphenyl)-5-oxo-8,11-dioxa-1,4-diazaspiro[5.6]dodecan-4-yl)-N—((R)-2′-oxo-1′,2′,3-tetrahydrospiro[inden-2,3′-pyrrolo[2,3-b]pyridin]-5-yl)acetamide], affinity was put at a Ki of 840 pM.

As to `O=C(CN1C(=O)C2(COCCOC2)NC[C@H]1c1cc(F)cc(F)c1)Nc1ccc2c(c1)C[C@@]1(C2)C(=O)Nc2ncccc21` [Example 1a, 2-((R)-3-(3,5-difluorophenyl)-5-oxo-8,11-dioxa-1,4-diazaspiro[5.6]dodecan-4-yl)-N-((R)-2′-oxo-1,1′,2′,3-tetrahydrospiro[indene-2,3′-pyrrolo[2,3-b]pyridin]-5-yl)acetamide], the affinity corresponds to a Ki of 30 pM.

`O=C(CN1C(=O)[C@H](CC2CCCCCC2)NCC1c1cc(F)cc(F)c1)Nc1ccc2c(c1)C[C@@]1(C2)C(=O)Nc2ncccc21` (single isomer, unassigned) [Example 13 Diastereomer 1] had a Ki of 720 pM.

`O=C(CN1C(=O)C2(COCCOC2)NC[C@H]1c1cc(F)cc(F)c1)Nc1ccc2c(c1)C[C@]1(C2)C(=O)Nc2ncccc21` [Example 1b, 2-((R)-3-(3,5-difluorophenyl)-5-oxo-8,11-dioxa-1,4-diazaspiro[5.6]dodecan-4-yl)-N-((S)-2′-oxo-1,1′,2′,3-tetrahydrospiro[inden-2,3′-pyrrolo[2,3-b]pyridin]-5-yl)acetamide]: the affinity corresponds to a Ki of 1770 pM.

In turn, `O=C(CN1C(=O)[C@@H](CC2CCCCCC2)NCC1c1cc(F)cc(F)c1)Nc1ccc2c(c1)C[C@@]1(C2)C(=O)Nc2ncccc21` (single isomer, unassigned) [Example 16b] gave a Ki of 130 pM.

Take `CN1C[C@@H](c2cc(F)cc(F)c2)N(CC(=O)Nc2ccc3c(c2)C[C@@]2(C3)C(=O)Nc3ncccc32)C(=O)C12COCCOC2` [Example 17, 2-((R)-3-(3,5-difluorophenyl)-1-methyl-5-oxo-8,11-dioxa-1,4-diazaspiro[5.6]dodecan-4-yl)-N-((R)-2′-oxo-1,1′,2′,3-tetrahydrospiro[inden-2,3′-pyrrolo[2,3-b]pyridin]-5-yl)acetamide]: the Ki worked out at 30 pM.

`O=C(CN1C(=O)C2(COCCOC2)NC[C@H]1c1cc(F)cc(F)c1)Nc1cc2c(cc1Cl)CC1(C2)C(=O)Nc2ncccc21` (stereo partly drawn) [Example 19, N-(5-chloro-2′-oxo-1,1′,2′,3-tetrahydrospiro[inden-2,3′-pyrrolo[2,3-b]pyridin]-6-yl)-2-((R)-3-(3,5-difluorophenyl)-5-oxo-8,11-dioxa-1,4-diazaspiro[5.6]dodecan-4-yl)acetamide]: the Ki was 1410 pM. Compared with the last compound, the Ki is about 47-fold higher.

For the compound `O=C(CN1C(=O)C2(COCCOC2)NCC1c1cc(F)cc(F)c1)Nc1cc2c(cn1)CC1(C2)C(=O)Nc2ncccc21` (stereo not shown) [Example 2], the Ki worked out at 1020 pM.

In the case of `O=C(CN1C(=O)[C@H](CC2CCCCCC2)NCC1c1cc(F)cc(F)c1)Nc1ccc2c(c1)C[C@@]1(C2)C(=O)Nc2ncccc21` (single isomer, unassigned) [Example 13 Diastereomer 2], affinity was put at a Ki of 710 pM. The Ki values of the last two compounds are within 1.5-fold of each other.

In the case of `O=C(CN1C(=O)C2(COCCOC2)NC[C@H]1c1cc(F)cc(F)c1)Nc1cnc2c(c1)CC1(C2)C(=O)Nc2ncccc21` (stereo partly drawn) [Example 24, 2-((R)-3-(3,5-difluorophenyl)-5-oxo-8,11-dioxa-1,4-diazaspiro[5.6]dodecan-4-yl)-N-(2′-oxo-1′,2′,5,7-tetrahydrospiro[cyclopenta[b]pyridin-6,3′-pyrrolo[2,3-b]pyridin]-3-yl)acetamide], the affinity, expressed as Ki, was 70 pM.

On to `O=C(CN1C(=O)[C@@H](CC2CCCCCC2)NCC1c1cc(F)cc(F)c1)Nc1ccc2c(c1)C[C@@]1(C2)C(=O)Nc2ncccc21` (single isomer, unassigned) [Example 16a], for which the affinity corresponds to a Ki of 5400 pM. This Ki lies about 77-fold higher than the previous one.

Consider `O=C(CN1C(=O)C2(CCC3(CCOCC3)CC2)NC[C@H]1c1cc(F)cc(F)c1)Nc1ccc2c(c1)C[C@@]1(C2)C(=O)Nc2ncccc21` [Example 14, 2-((R)-3-(3,5-difluoro-phenyl)-5-oxo-12-oxa-1,4-diaza-dispiro[5.2.5.2]hexadecan-4-yl)-N-((R)-2′-oxo-1,1′,2′,3-tetrahydrospiro[inden-2,3′-pyrrolo[2,3-b]pyridin]-5-yl)acetamide], for which the Ki stood at 70 pM.

In turn, `O=C(CN1C(=O)C2(COCCOC2)NC[C@H]1c1ccc(F)cc1)Nc1ccc2c(c1)C[C@@]1(C2)C(=O)Nc2ncccc21` [Example 22, 2-((R)-3-(4-fluorophenyl)-5-oxo-8,11-dioxa-1,4-diazaspiro[5.6]dodecan-4-yl)-N-((R)-2′-oxo-1,1′,2′,3-tetrahydrospiro[inden-2,3′-pyrrolo[2,3-b]pyridin]-5-yl)acetamide] had a Ki of 110 pM. This Ki is about 1.6-fold higher than that of the compound before.

In turn, `O=C(CN1C(=O)C(CC2CCCCCC2)NCC1c1cc(F)cc(F)c1)Nc1ccc2c(c1)CC1(C2)C(=O)Nc2ncccc21` (stereo not shown) [Example 3] came in with a Ki of 720 pM. Against the preceding compound, the Ki is about 6.5-fold higher.

`CC(C)(C)OC(=O)N1C[C@@H](c2ccccc2)N(CC(=O)Nc2ccc3c(c2)C[C@@]2(C3)C(=O)Nc3ncccc32)C(=O)C12COCCOC2` [Example 20, (R)-tert-butyl 5-oxo-4-(2-oxo-2-((R)-2′-oxo-1,1′,2′,3-tetrahydrospiro[inden-2,3′-pyrrolo[2,3-b]pyridin]-5-ylamino)ethyl)-3-phenyl-8,11-dioxa-1,4-diazaspiro[5.6]dodecane-1-carboxylate] registered a Ki of 960 pM.
